Among the data in ChEMBL document CHEMBL1125501, “Probes for narcotic receptor mediated phenomena. 18. Epimeric 6 alpha- and 6 beta-iodo-3,14-dihydroxy-17-(cyclopropylmethyl)-4,5 alpha-epoxymorphinans as potential ligands for opioid receptor single photon emission computed tomography: synthesis, evaluation, and radiochemistry of [125I]-6 …” (J Med Chem, 1992) are IC50 and Ki values, retold here.

One may read the IC50 as the concentration that inhibits the measured activity by half. A low value points to greater potency in that assay. One may read the Ki as the dissociation constant of the complex between target and ligand, obtained from inhibition or displacement.

In assay [1] the target is T1, Mu-type opioid receptor (Rattus norvegicus, UniProt P33535). It counts as cell membranes, Brain, Brain membranes.
T1 sequence (P33535 whole entry): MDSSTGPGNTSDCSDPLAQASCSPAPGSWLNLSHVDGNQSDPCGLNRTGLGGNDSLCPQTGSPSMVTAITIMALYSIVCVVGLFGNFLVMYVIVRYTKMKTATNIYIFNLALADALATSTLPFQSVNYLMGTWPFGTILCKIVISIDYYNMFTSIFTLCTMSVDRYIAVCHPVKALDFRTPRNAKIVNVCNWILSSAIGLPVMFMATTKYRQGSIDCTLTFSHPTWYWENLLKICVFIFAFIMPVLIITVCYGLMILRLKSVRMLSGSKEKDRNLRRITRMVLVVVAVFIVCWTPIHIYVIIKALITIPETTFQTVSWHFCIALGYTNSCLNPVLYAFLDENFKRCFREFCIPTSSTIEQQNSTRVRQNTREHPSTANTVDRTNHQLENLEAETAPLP
Assay [2] deals with T1, Mu-type opioid receptor. It counts as cell membranes, Brain, Brain membranes. This is another data set of the same source.
In assay [3] the target is T2, Delta-type opioid receptor (Rattus norvegicus, UniProt P33533). Nature of the assay: In vito concentration required to displace [3H]-DADLE (Kd = 12.2 nM and concentration is 2.1 nM) from low affinity delta-site in rat brain membranes. It counts as cell membranes.
T2 sequence (P33533 whole entry): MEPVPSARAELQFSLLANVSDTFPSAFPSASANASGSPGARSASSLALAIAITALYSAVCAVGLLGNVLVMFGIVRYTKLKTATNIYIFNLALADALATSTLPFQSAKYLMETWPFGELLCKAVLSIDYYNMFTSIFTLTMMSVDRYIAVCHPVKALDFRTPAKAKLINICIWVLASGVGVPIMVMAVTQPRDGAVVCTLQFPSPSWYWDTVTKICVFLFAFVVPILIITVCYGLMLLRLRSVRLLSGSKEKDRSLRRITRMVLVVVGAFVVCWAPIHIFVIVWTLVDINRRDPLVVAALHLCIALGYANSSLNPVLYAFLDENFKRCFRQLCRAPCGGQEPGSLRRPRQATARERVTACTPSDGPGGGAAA
Assay [4] has as its target T3, Kappa-type opioid receptor (Cavia porcellus, UniProt P41144). Put plainly: In vito concentration required to displace [3H]BRM (Kd = 1.0 nM and concentration is 1.8 nM) from opioid receptor kappa 2 in guinea brain membranes. It counts as cell membranes.
Assay [5] addresses T3, Kappa-type opioid receptor. Nature of the assay: In vito concentration required to displace 9 (Kd = […] and concentration is 1.8 nM) from opioid receptor kappa 2 in guinea brain membranes. It counts as cell membranes.
For assay [6], the target named is T2, Delta-type opioid receptor. Put plainly: In vito concentration required to displace [3H]DADLE (Kd = 12.2 nM and concentration is 2.1 nM) from low affinity delta-site in rat brain membranes. It counts as cell membranes.
Assay [7] has as its target T2, Delta-type opioid receptor. Put plainly: In vito concentration required to displace [3H]DADLE (Kd = […] and concentration is […]) from high affinity delta-site in rat brain membranes. It counts as cell membranes.
Assay [8] addresses T3, Kappa-type opioid receptor. Put plainly: In vito concentration required to displace [3H]-BRM (Kd = 1.0 nM and concentration is 1.8 nM) from opioid receptor kappa 2 in guinea brain membranes. It counts as cell membranes.
Assay [9] has as its target T1, Mu-type opioid receptor. Put plainly: In vito concentration required to displace [3H]DAGO (Kd = 0.7 nM and concentration is […]) from opioid receptor mu in rat brain membranes. It counts as cell membranes.
The target of assay [10] is T3, Kappa-type opioid receptor. Nature of the assay: In vito concentration required to displace 9 (Kd = […] and concentration is 1.8 nM) from opioid receptor kappa 1 in guinea brain membranes. It counts as cell membranes.

T3 sequence (P41144 whole entry): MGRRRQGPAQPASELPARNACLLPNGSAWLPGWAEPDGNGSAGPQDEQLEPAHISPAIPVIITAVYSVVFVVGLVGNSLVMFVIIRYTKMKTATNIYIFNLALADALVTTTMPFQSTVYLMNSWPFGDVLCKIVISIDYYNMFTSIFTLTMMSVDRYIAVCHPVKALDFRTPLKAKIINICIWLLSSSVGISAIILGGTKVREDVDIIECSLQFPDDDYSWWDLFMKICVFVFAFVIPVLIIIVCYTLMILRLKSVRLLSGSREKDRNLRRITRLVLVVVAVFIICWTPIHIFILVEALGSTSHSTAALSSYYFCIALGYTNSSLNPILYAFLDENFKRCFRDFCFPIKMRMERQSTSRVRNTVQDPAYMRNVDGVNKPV

For the molecule `Oc1ccc2c3c1O[C@H]1[C@H](I)CC[C@@]4(O)[C@@H](C2)N(CC2CC2)CC[C@]314`, the IC50 in [1] was found to be 0.77 nM; in [3], 2.64 nM; in assay [4], 7.65 nM; in assay [7] it was 25.6 nM. For the same molecule, the figures for the Ki in assay [2], in assay [5] and in assay [6] were 0.29 nM, 2.73 nM and 2.25 nM, respectively.
On to `Oc1ccc2c3c1O[C@H]1[C@@H](I)CC[C@@]4(O)[C@@H](C2)N(CC2CC2)CC[C@]314`, for which the IC50 in assay [1] came to 4.34 nM; in [3], 8.06 nM; in assay [4], 23.7 nM. Further, the Ki in assay [8] stood at 8.46 nM; in assay [2] it was 1.65 nM; in assay [6] it was 6.88 nM.
`Oc1ccc2c3c1O[C@H]1[C@H](F)CC[C@@]4(O)[C@@H](C2)N(CC2CC2)CC[C@]314`: the IC50 is 11.4 nM in assay [9]; 8.98 nM in assay [1]; 16.2 nM in [3]; 66 nM in assay [4]; 268 nM in [7]. Further, the Ki is 3.32 nM in [9]; 3.42 nM in [2]; 3.71 nM in assay [10]; 13.8 nM in assay [6]; 122 nM in assay [7].
On to `Oc1ccc2c3c1O[C@H]1[C@@H](Br)CC[C@@]4(O)[C@@H](C2)N(CC2CC2)CC[C@]314`, for which the IC50 in assay [9] came out at 4.21 nM; in [1], 3.14 nM; in assay [10], 0.7 nM; in assay [3], 5.77 nM; in assay [4], 20.2 nM; in assay [7], 4.3 nM. Further, the Ki in [9] turned out to be 1.23 nM; in [8] it was 7.21 nM; in assay [2], 1.19 nM; in assay [10] it was 0.32 nM; in [6] it was 4.92 nM; in [7] it was 1.96 nM.
